According to ChEMBL document CHEMBL1933034, “Synthesis, docking and in vitro antimalarial evaluation of bifunctional hybrids derived from β-lactams and 7-chloroquinoline using click chemistry” (Bioorg Med Chem Lett, 2012):

Tested on: Plasmodium falciparum
Assay: Antimalarial activity against chloroquine-resistant ring stage of Plasmodium falciparum W2 infected in human erythrocytes assessed as inhibition of parasitemia after 48 hrs by FACS analysis
Format: functional, organism-based
Conditions: W2, 48 h

In the case of `Cc1ccc(N2C(=O)[C@@H](NCc3cn(-c4ccnc5cc(Cl)ccc45)nn3)[C@H]2/C=C/c2ccccc2)cc1`, the IC50 is reported as > 10 µM.
With `O=C1[C@@H](NCc2cn(-c3ccnc4cc(Cl)ccc34)nn2)[C@@H](/C=C/c2ccccc2)N1c1ccccc1` the IC50 was 1.9 µM.
For `O=C1[C@@H](NCc2cn(-c3ccnc4cc(Cl)ccc34)nn2)[C@@H](/C=C/c2ccccc2)N1c1ccc(F)cc1`, the IC50 was > 10 µM.
With `O=C1[C@@H](NCc2cn(-c3ccnc4cc(Cl)ccc34)nn2)[C@@H](/C=C/c2ccccc2)N1C1CCCCC1` the IC50 was 4.3 µM.
In the case of `O=C1[C@@H](NCc2cn(-c3ccnc4cc(Cl)ccc34)nn2)[C@@H](/C=C/c2ccccc2)N1Cc1ccccc1`, the IC50 is reported as 5.9 µM.
Compound `Cc1ccc(N2C(=O)[C@@H](N(Cc3cn(-c4ccnc5cc(Cl)ccc45)nn3)Cc3cn(-c4ccnc5cc(Cl)ccc45)nn3)[C@H]2/C=C/c2ccccc2)cc1` has an IC50 of 1.5 µM.
With `O=C1[C@@H](N(Cc2cn(-c3ccnc4cc(Cl)ccc34)nn2)Cc2cn(-c3ccnc4cc(Cl)ccc34)nn2)[C@@H](/C=C/c2ccccc2)N1c1ccccc1` the IC50 was 2.1 µM.
For `O=C1[C@@H](N(Cc2cn(-c3ccnc4cc(Cl)ccc34)nn2)Cc2cn(-c3ccnc4cc(Cl)ccc34)nn2)[C@@H](/C=C/c2ccccc2)N1c1ccc(F)cc1`, the IC50 was 1.1 µM.
`O=C1[C@@H](N(Cc2cn(-c3ccnc4cc(Cl)ccc34)nn2)Cc2cn(-c3ccnc4cc(Cl)ccc34)nn2)[C@@H](/C=C/c2ccccc2)N1C1CCCCC1` gave an IC50 of 2.8 µM.
In the case of `O=C1[C@@H](N(Cc2cn(-c3ccnc4cc(Cl)ccc34)nn2)Cc2cn(-c3ccnc4cc(Cl)ccc34)nn2)[C@@H](/C=C/c2ccccc2)N1Cc1ccccc1`, the IC50 is reported as 2.7 µM.
